Measured values as given in PMC5039936 (Clinical Pharmacology and Therapeutics, 2015).
Values joined by “and” are separate entries in the source; they are usually repeats but may differ in a detail not shown here. Equal entries are not always repeated.

Experiments:
[1] = ref unpublished data, Suri, A., Pusalkar, S., Li, Y., & Prakash, S. Clin. Pharmacol. Drug Development 2015, cited from earlier work
[2] = In vitro clearance in human liver microsomes; assay type: in vitro ADME
[3] = Plasma protein binding by rapid equilibrium dialysis in study C21010; assay type: in vitro ADME; conditions: human, oral, 200 mg, mean percent unbound of orteronel in plasma, range across the renal function groups
[4] = Phase 1 renal impairment study C21010, urine PK; assay type: in vivo, human; conditions: geometric mean; for CL renal: human, urine, oral, 200 mg, CLrenal
[5] = Population PK model of plasma orteronel in patients with mCRPC; assay type: in vivo, human
[6] = In vitro clearance in human hepatocytes; assay type: in vitro ADME
[7] = Phase 1 single-dose renal impairment study C21010, plasma PK; assay type: in vivo, human; conditions: for AUC(0-inf): human, plasma, po, 200 mg, AUCinf, geometric LSM, single oral 200 mg dose; for increase in mean AUCinf compared with normal renal function: single 200 mg dose

in vitro clearance [2]: no appreciable in vitro clearance
fraction unbound at 2 h [3]: 0.547 to 0.589
CL renal ([4]; mild chronic RI): 97.8 mL/min
CL renal ([4]; moderate chronic RI): 49.2 mL/min
CL renal ([4]; normal renal function): 158 mL/min
CL renal ([4]; severe chronic RI): 25.8 mL/min
fraction of dose excreted as unchanged orteronel (Fe) ([4]; mild chronic RI): 33.1%
fraction of dose excreted as unchanged orteronel (Fe) ([4]; moderate chronic RI): 19.4%
fraction of dose excreted as unchanged orteronel (Fe) ([4]; normal renal function): 44.9%
fraction of dose excreted as unchanged orteronel (Fe) ([4]; severe chronic RI): 13.8%
ka ([5]; base model, mean (SD)): 2.1 (0.2) h^−1
predicted decrease in CL/F ([5]; final PK model, reduction in CLcr from 92 to 46 mL/min): 28%
BILI on ka ([5]; final model covariate effect, mean (SD)): –0.46 (0.20)
CL/F ([5]; final model, mean (SD)): 17.7 L/h
V/F ([5]; final model, mean (SD)): 261 L
ka ([5]; final model, mean (SD)): 2.2 (0.3) h^−1
in vitro clearance [6]: no appreciable in vitro clearance
slope of regression of CL/F vs CLcr ([7]; CL/F = 10.90 + 0.101*CLcr, r2 = 0.2177): 0.101
AUC(0-inf) ([7]; mild chronic renal impairment (CLcr ≥60–89 mL/min)): 11300 ng·h/mL
AUC(0-inf) ([7]; moderate chronic renal impairment (CLcr ≥30–59 mL/min)): 13100 ng·h/mL
AUC(0-inf) ([7]; normal renal function (CLcr ≥90 mL/min), fasted): 9500 ng·h/mL
AUC(0-inf) ([7]; severe chronic renal impairment (CLcr ≥15–29 mL/min)): 17800 ng·h/mL
increase in mean AUCinf compared with normal renal function ([7]; mild chronic RI): 18.6% and 19%
increase in mean AUCinf compared with normal renal function ([7]; moderate chronic RI): 38% and 38.4%
increase in mean AUCinf compared with normal renal function ([7]; severe chronic RI): 87% and 87.1%
SMILES: CNC(=O)c1ccc2cc([C@@]3(O)CCn4cncc43)ccc2c1 [orteronel]
share of orteronel CL characterized as renal CL ([1]; intact parent compound in urine): 53%
share of CL characterized as other CL ([1]; metabolites formed via hydrolysis, neither renal nor hepatic): 19%
